Source: patent US20100048644A1 (BEIJING HUAANFO BIOMEDICAL RESEARCH CENTRE INC., priority 2006, published 2010)
Several values for one entry are separate records, joined by “and”; a condition that tells them apart may be missing. Equal entries are not always repeated.

Assays:
[1] = tested on: spontaneous hypertensive rats (SHR) with prostate hyperplasia; test: Urodynamic parameters and urine volumes in spontaneous hypertensive rats (SHR) with prostate hyperplasia; assay type: in vivo, rat (SHR); settings: Amlodipine 0.5 mg/kg (A3) oral once daily 14 days
Procedure: (§1) In the treatment groups, the rats were orally administered by infusion at 1 ml/100 g body weight once daily for 14 consecutive days after 7-day injection with testosterone propionate. In the blank and model groups, the rats were orally perfused with isovolumetric physiological saline.
(§2) The rats were anaesthetized by a peritoneal injection of 20% ethyl carbamate at a dose of 1000 mg/kg. The rat bladder was exposed by cutting a longitudinal incision on the upper of pubic arch. Piercing the top of bladder made a little hole, where a catheter with cannulas was inserted. The outside cannula (Φ 1.2 mm) with a pressreceptor was linked to PC-Lab multi-lead physiological recording system. The inside cannula (Φ 0.61 mm) was connected to an injection pump with constant infusion speed (2 ml/h). After last administration, the urodynamic parameters, single urine volume, and residual urine volume in rats were respectively collected.
(§3) Data were presented as mean±SD. One way-ANOVA was employed for group comparison.

[2] = tested on: patients with low urinary tract syndrome (LUTS) and mild to moderate hypertension; test: Clinical study, Amlodipine 5 mg vs Terazosin 2 mg for 4 weeks: IPSS, urinary flow rate, blood pressure; assay type: in vivo, human; design: key to BOO (obstructive symptoms score) / OAB (irritative symptoms score): IPSS sub-scores in points (symptom items of IPSS); settings: for Percentage of improvement at Week 4: BOO / Percentage of improvement at Week 4: DBP / Percentage of improvement at Week 4: IPSS / Percentage of improvement at Week 4: OAB / Percentage of improvement at Week 4: Qave / Percentage of improvement at Week 4: Qmax / Percentage of improvement at Week 4: SBP: Week 4 vs Week 0
Source text: 1) Male, 50-75 years old. […] 3) International Prostate Symptom Score (IPSS)≧8 points
Storage, reservation and delivery of drugs were in accordance with Standard Operation Procedure (SOP).
Obstructive symptoms score includes hesitancy of micturition, reduced or interrupted urinary stream and sensation of incomplete bladder emptying, which mainly reflect BOO. Irritative symptoms score refers to urinary urgency and frequency, and an increase in night micturition, reflecting OAB symptoms. In this study, a total score of IPSS is considered as primary index. Sub-scores on BOO and OAB were also considered.
All data, doubly entered using Epi-info 3.0 and presented as mean±standard deviation (SD), were analyzed using SAS 8.0. A paired t-test was employed to compare pre- and post-treatment scores, and a multiple regression analysis was further performed to adjust for important covariates. Difference was considered significant at P<0.05.

rats with BPH = test: Urodynamic parameters and urine volumes in castrated, testosterone propionate-treated SD rats with BPH; assay type: in vivo, rat (male SD)
Procedure: Afterwards, the bilateral testicles of the rats were resected under an aseptic condition. Then the rats received an intramuscular injection of penicillin at 20000 U/kg/d for 3 days, and 1 week later a subcutaneous injection of testosterone propionate (dissolved in olive oil) at 0.5 mg/pec, once daily for 21 consecutive days.
as §1, §2, §3

[3] = Week 0 (before treatment), groups Amlodipine 5 mg (N=90), Terazosin 2 mg (N=62)
[4] = Week 4, Amlodipine 5 mg or Terazosin 2 mg oral for 4 consecutive weeks
[5] = Amlodipine 5 mg or Terazosin 2 mg oral for 4 weeks
[6] = multiple regression adjusted for age and BMI, Amlodipine 5 mg vs Terazosin 2 mg, 4 weeks
[7] = multiple regression, crude, Amlodipine 5 mg vs Terazosin 2 mg, 4 weeks
[8] = Amlodipine 0.25 mg/kg (A1) oral once daily 14 days
[9] = Amlodipine 0.5 mg/kg (A2) oral once daily 14 days

## CCOC(=O)C1=C(COCCN)NC(C)=C(C(=O)OC)C1c1ccccc1Cl (stereo not drawn) [Amlodipine]
[1]
  Interval of micturition: 786.0 ± 237.5 s
  Peak value of micturition pressure: 31.8 ± 7.3 mmHg
  Point pressure of micturition: 31.4 ± 3.6 mmHg
  Qave. (average urinary flow rate): 4.4 ± 1.6 mL/s
  Time of micturition: 8.0 ± 1.1 s
[2]; [3]
  BOO (obstructive symptoms score): 9.1 ± 4.2
  DBP: 88.6 ± 8.9 mmHg
  OAB (irritative symptoms score): 7.3 ± 3.3
  Qave: 8.9 ± 4.1 mL/s
  Qmax: 17.3 ± 6.7 mL/s
  SBP: 155.4 ± 16.1 mmHg
[2]; [4]
  BOO (obstructive symptoms score): 5.8 ± 4.6
  DBP: 82.0 ± 8.9 mmHg
  IPSS: 11.1 ± 6.7
  OAB (irritative symptoms score): 5.5 ± 3.2
  Qave: 8.8 ± 3.8 mL/s
  Qmax: 17.7 ± 6.9 mL/s
  SBP: 140.9 ± 15.4 mmHg
[2]; [5]
  Percentage of improvement at Week 4: BOO: 33.3 ± 53.2 %
  Percentage of improvement at Week 4: DBP: 7.2 ± 7.1 % and 7.22 ± 7.09%
  Percentage of improvement at Week 4: IPSS: 30.2 ± 39.7 % and 30.17 ± 39.7%
  Percentage of improvement at Week 4: OAB: 17.3 ± 49.3 %
  Percentage of improvement at Week 4: Qave: 5.0 ± 35.2% and 5.04 ± 35.25%
  Percentage of improvement at Week 4: Qmax: 7.1 ± 41.1% and 7.09 ± 41.10%
  Percentage of improvement at Week 4: SBP: 8.9 ± 9.6 % and 8.89 ± 9.61%
[2]; [6]
  Percentage of improvement, (2)-(1) Amlodipine minus Terazosin, β Adjust: BOO: 0.3
  Percentage of improvement, (2)-(1) Amlodipine minus Terazosin, β Adjust: DBF: 5.1
  Percentage of improvement, (2)-(1) Amlodipine minus Terazosin, β Adjust: IPSS: 1.4
  Percentage of improvement, (2)-(1) Amlodipine minus Terazosin, β Adjust: OAB: 8.6
  Percentage of improvement, (2)-(1) Amlodipine minus Terazosin, β Adjust: Qave: −8.4
  Percentage of improvement, (2)-(1) Amlodipine minus Terazosin, β Adjust: Qmax: −5.0
  Percentage of improvement, (2)-(1) Amlodipine minus Terazosin, β Adjust: SBP: 5.7
[2]; [7]
  Percentage of improvement, (2)-(1) Amlodipine minus Terazosin, β Crude: BOO: 1.1
  Percentage of improvement, (2)-(1) Amlodipine minus Terazosin, β Crude: DBF: 4.9
  Percentage of improvement, (2)-(1) Amlodipine minus Terazosin, β Crude: IPSS: 2.0
  Percentage of improvement, (2)-(1) Amlodipine minus Terazosin, β Crude: OAB: 9.6
  Percentage of improvement, (2)-(1) Amlodipine minus Terazosin, β Crude: Qave: −8.7
  Percentage of improvement, (2)-(1) Amlodipine minus Terazosin, β Crude: Qmax: −5.7
  Percentage of improvement, (2)-(1) Amlodipine minus Terazosin, β Crude: SBP: 5.6
Rats with BPH; [8]
  Interval of micturition: 734.8 ± 210.5 s
  Peak value of micturition pressure: 37.5 ± 7.0 mmHg
  Point pressure of micturition: 33.4 ± 3.3 mmHg
  Qave. (average urinary flow rate): 3.7 ± 1.2 mL/s
  Time of micturition: 8.9 ± 1.6 s
Rats with BPH; [9]
  Interval of micturition: 762.3 ± 274.8 s
  Peak value of micturition pressure: 30.5 ± 5.5 mmHg
  Point pressure of micturition: 30.6 ± 3.9 mmHg
  Qave. (average urinary flow rate): 4.0 ± 1.9 mL/s
  Time of micturition: 8.4 ± 1.8 s

## COc1cc2nc(N3CCN(C(=O)C4CCCO4)CC3)nc(N)c2cc1OC (stereo not drawn) [Terazosin]
[2]; [5]
  indices improved between week 0 and week 4: remarkable improvement in IPSS, BOO-related score, maximum urinary flow rate (Qmax) and Qave, and a decrease in systolic blood pressure
  indices without improvement between week 0 and week 4: no improvement in OAB-related score and diastolic blood pressure
  Percentage of improvement at Week 4: BOO: 32.2 ± 63.5 %
  Percentage of improvement at Week 4: DBP: 2.3 ± 10.1% and 2.31 ± 10.12%
  Percentage of improvement at Week 4: IPSS: 28.1 ± 40.5 % and 28.15 ± 40.5%
  Percentage of improvement at Week 4: OAB: 7.7 ± 54.8%
  Percentage of improvement at Week 4: Qave: 13.8 ± 25.9 % and 13.77 ± 25.86%
  Percentage of improvement at Week 4: Qmax: 12.8 ± 30.5 % and 12.8 ± 30.47%
  Percentage of improvement at Week 4: SBP: 3.3 ± 11.9 % and 3.28 ± 11.92%
[2]; [3]
  BOO (obstructive symptoms score): 6.6 ± 3.5
  DBP: 86.6 ± 9.0 mmHg
  IPSS: 13.2 ± 4.4
  OAB (irritative symptoms score): 6.6 ± 3.0
  Qave: 8.9 ± 3.9 mL/s
  Qmax: 17.7 ± 7.0 mL/s
  SBP: 152.8 ± 15.9 mmHg
[2]; [4]
  BOO (obstructive symptoms score): 4.2 ± 4.3
  DBP: 84.5 ± 11.4 mmHg
  IPSS: 9.4 ± 5.9
  OAB (irritative symptoms score): 5.3 ± 2.8
  Qave: 9.9 ± 4.2 mL/s
  Qmax: 19.4 ± 7.4 mL/s
  SBP: 147.0 ± 17.8 mmHg
